Test results published in PubChem BioAssay (NCI).
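Method: 48-hour compound exposure of cells in 96-well plates, five concentrations, linear interpolation of endpoints. GI50: concentration for 50% inhibition of growth. The concentration for full growth arrest is given as TGI.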

Tests used:
Assay in all cases: NCI anticancer screen, dose series, 48 h
EKVX NSCLC = test system: EKVX NSCLC
SK-OV-3 ovarian = test system: SK-OV-3 ovarian
OVCAR-3 ovarian = test system: OVCAR-3 ovarian
MDA-MB-231 breast = test system: MDA-MB-231 breast
NCI-H226 lung = test system: NCI-H226 lung
UACC-257 melanoma = test system: UACC-257 melanoma
KM12 colon = test system: KM12 colon
OVCAR-8 ovarian = test system: OVCAR-8 ovarian
HS 578T breast = test system: HS 578T breast
ACHN renal = test system: ACHN renal

Compound	TGI (EKVX NSCLC) [µM]	TGI (SK-OV-3 ovarian) [µM]	TGI (OVCAR-3 ovarian) [µM]	TGI (MDA-MB-231 breast) [µM]	TGI (NCI-H226 lung) [µM]	TGI (UACC-257 melanoma) [µM]	TGI (KM12 colon) [µM]	TGI (OVCAR-8 ovarian) [µM]	TGI (HS 578T breast) [µM]	TGI (ACHN renal) [µM]	GI50 (EKVX NSCLC) [µM]	GI50 (SK-OV-3 ovarian) [µM]	GI50 (OVCAR-3 ovarian) [µM]	GI50 (MDA-MB-231 breast) [µM]	GI50 (NCI-H226 lung) [µM]	GI50 (UACC-257 melanoma) [µM]	GI50 (KM12 colon) [µM]	GI50 (OVCAR-8 ovarian) [µM]	GI50 (HS 578T breast) [µM]	GI50 (ACHN renal) [µM]
CC(C)c1ccccc1S(=O)c1ccccc1C(C)(C)O (centres undefined)	> 100	> 100	> 100	> 100	41.8	> 100	> 100	> 100	> 100	> 100										
Cc1cc(NC(=O)c2ccc(C)c(Nc3nccc(-c4cccnc4)n3)c2)cc(-n2cnc(C)c2)c1	21.4	4.93	4.83	5.45	5.39	5.92	14.7	13.7	14.4	3.96	4.27	1.73	1.87	1.25	1.68	1.53	4.83	4.27	0.0847	0.0734
COc1ccc(-c2cc(-c3cccn3C)c(C#N)c(N)n2)cc1OC	> 100	> 100	> 100	> 100	> 100	> 100	> 100	> 100	> 100	> 100	> 100	> 100	> 100	38.3	> 100	> 100	> 100	> 100	> 100	> 100
COc1cc2c(cc1OC)C13CCN4CC5=CCOC6CC(=O)N2C1C6C5CC43O (centres undefined)	> 100	> 100	> 100	> 100	> 100	> 100	> 100	> 100	> 100	> 100										
Cc1sc2nc(NCCc3c[nH]c4ccc(Cl)cc34)[nH]c(=O)c2c1C		14.5	12.7	8.74	17.4	6.34	5.54	5.69	6.25	4.47	2.76	3.22	3.26	2.59	3.18	2.14	2.17	2.12	1.86	1.93
COc1ccc(-n2cc(-c3ccc(Cl)c(Cl)c3)nc2SCc2cccc(C#N)c2)cc1	> 100	> 100	> 100	> 100	> 100	> 100	> 100	> 100	> 100	> 100	41.9	26.2	17	68	77	66.9	> 100	18.6	18.4	30.4
O=C(N/N=C\c1cc(Br)ccc1O)c1ccncc1	38.5	> 100	39.8	> 100	32.6	15.9	> 100	> 100	> 100	> 100	1.8	4.79	0.435	5.88	1.86	2.33	1.97	1.38	13.4	2.37
Nc1nc(Br)nc2c1ncn2C1CC(O)C(CO)O1 (centres undefined)	> 100	> 100	> 100	> 100	> 100	> 100	> 100	> 100	> 100	> 100	> 100	> 100	> 100	> 71.2	25.2	27.3	> 100	0.18	> 93.3	3.7
Fc1ccc(Nc2cc(-n3nnc4ccccc43)nc3ccccc23)cc1	> 82.6	> 100	> 100	> 49.2	> 69	> 100	> 100	> 79	> 68.7	> 100	31.8	8.41	28.4	8.44	19	70.1	> 100	22.2	18.2	> 62.6
O=C(O)c1c(-c2nccc3ccccc23)[nH]c(-c2ccccc2)c1S(=O)(=O)O	> 100	> 100	> 100	> 100	> 100	> 100	> 100	> 100	> 100	> 100										
O=C(O)c1cc(O)c2c(c1)C(C1c3cc(C(=O)O)cc(O)c3C(=O)c3c(OC4OC(CO)C(O)C(O)C4O)cccc31)c1cccc(OC3OC(CO)C(O)C(O)C3O)c1C2=O (centres undefined)	> 100	> 100	> 100	> 100	> 100	> 100	> 100	> 100	> 100	> 100	> 100	> 100	> 100	> 100	> 100	> 100	> 100	> 100	> 100	> 100
COc1ccc(/C=c2/sc3n(c2=O)C(c2ccc(OC)c(OC)c2)C2=C(N=3)c3cc(F)ccc3OC2)cc1 (centres undefined)	> 100	> 100	14.1	> 75.1	> 60.2	> 88.8	> 79.2	> 100	> 87.5	65.7	39.7	> 57	2.54	14.8	9.17	35	18.1	40.2	27	19.3
O=C(O)c1cccc(OCCO)c1	> 100	> 100	> 100	> 100	> 100	> 100	> 100	> 100	> 100	> 100										
Cc1c[n+](Cc2ccc3ccccc3c2)cn1Cc1ccc2ccccc2c1	9.71	6.12	2.28	3.24	5.87	3.16	3.1	4.01	6.65	19.4	2.15	2.16	1.04	1.54	2.12	1.46	1.65	1.89	2.22	5.41
Cc1[nH][nH]c(=O)c1C=Nc1ccc(-c2nc3ccccc3[nH]2)cc1	51.1	> 100	36	33.8	> 100	42.1	89.7	54.6	63.9	> 100	19.8	41.9	14.9	12.8	33.7	19.9	18.3	20.7	29	30.1
O=C1/C(=C\c2cccn2Cc2ccccc2)c2ccccc2N1c1c(Cl)cccc1Cl	> 28.1	> 100	> 48.7	> 100	> 100	> 100	> 53.4	> 100	> 100	> 100	1.42	> 100	1.32	5.83	14.9	> 100	0.866	> 100	> 100	7.9
CCOC(=O)N1CCN(C(=O)c2ccc(C(F)(F)F)nc2Nc2cc(Cl)ccc2C)CC1	> 100	> 100	47.2	21.9	68.6	> 100	31.2	> 100	91.2	89.4	23.2	> 100	8.85	5.22	20.5	27.2	11.2	30.2	23.9	13.9
CN(C)Cc1c[nH]c2c1C(=O)c1c(c(O)c3ccccc3c1O)C2=O	5.28	> 100	13.9	25	33.3	35.4	20.9	29.8	26.7	20.1	0.603	52	2.44	11.6	17	19.7	4.66	8.56	10.9	7.08
N#CC(C(=O)/C(=N/Nc1nc(=S)[nH]n1N)C(C#N)c1ccccc1)c1ccccc1 (centres undefined)	> 100	> 100	> 100	> 100	> 100	> 100	> 100	> 100	> 100	> 100										
CCN(CC)CCOc1ccc(/C(=C(\C)c2ccc(F)c(OC)c2)c2ccc(Cl)cc2)cc1	5.39	5.73	4.6	4.8	5.14	4.67	4.73	5.37	5.84	5.31	2.46	2.97	2.26	2.54	2.53	2.18	2.27	2.58	2.42	2.7
Nc1nc(Cl)cc(NCCO)n1	> 100	> 100	> 100	> 100	> 100	> 100	> 100	> 100	> 100	> 100										
